Some test systems named below: BT-549 breast; HCT-116 colon; HL-60(TB) leukemia; NCI-H460 lung; SF-268 CNS; T-47D breast; UACC-257 melanoma; NCI-H226 lung.
What all share (experiment): NCI-60 cell line screen, 48 h

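Results reflect a 48-hour exposure of cells in 96-well plates to compound at five concentrations. GI50 is the concentration that inhibits growth by half. TGI is the concentration that stops growth completely.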

With `CC[C@@]12C=CC(=S)N(CCSc3ccccc3)[C@@H]1c1c(n(S(=O)(=O)c3ccc(OC)cc3)c3ccccc13)CC2`, the TGI with BT-549 breast, with HCT-116 colon, with HL-60(TB) leukemia, in the experiment with NCI-H460 lung, in the experiment on SF-268 CNS and in the experiment with T-47D breast was greater than 100 µM in each case. In the experiment on UACC-257 melanoma, this compound yielded a TGI greater than 100 µM.

For the compound `CSc1nc2c(=O)n(-c3ccccc3)c(=S)n(-c3ccccc3)c2s1`, the TGI in the experiment with HCT-116 colon was greater than 100 µM; with HL-60(TB) leukemia it was greater than 100 µM; in the experiment with NCI-H226 lung it was 86.3 µM; in the experiment on NCI-H460 lung it was greater than 100 µM; in the experiment with SF-268 CNS, greater than 100 µM; in the experiment with T-47D breast it was greater than 100 µM. In addition, the TGI in the experiment with UACC-257 melanoma is greater than 100 µM.

Take `CC(=O)NC(Cc1ccc(OP(=O)(OCc2ccc([N+](=O)[O-])o2)N(C)CCCCCl)cc1)C(=O)NC(C)c1ccc(OCC2CCCCC2)c(C(N)=O)c1` (stereo not given): the TGI in the experiment on HCT-116 colon was found to be 5.3 µM; in the experiment on HL-60(TB) leukemia, 6.83 µM; in the experiment with NCI-H226 lung it was 21.2 µM; with NCI-H460 lung it was 15.2 µM; with SF-268 CNS it was 6.48 µM; with T-47D breast it was 6.31 µM. The TGI with UACC-257 melanoma is 3.78 µM.

With `Oc1ccc(C#CCOc2ccccc2)cc1CNCCN(Cc1ccccn1)Cc1ccccn1`, the GI50 is 1.19 µM in the experiment with HL-60(TB) leukemia; 1.34 µM with NCI-H226 lung; 0.538 µM in the experiment with NCI-H460 lung; 1.37 µM with SF-268 CNS; 2.88 µM in the experiment with T-47D breast; 2.55 µM in the experiment on UACC-257 melanoma. Further, the TGI with HL-60(TB) leukemia turned out to be 4.21 µM; in the experiment with NCI-H226 lung, 3.1 µM; with NCI-H460 lung, 2.38 µM; with SF-268 CNS, 4.29 µM; with T-47D breast it was 13.8 µM; in the experiment with UACC-257 melanoma, 6.83 µM.

Turning to `C[C@]1(O)O[C@@H]2OCC[C@@H]2C2=C1C(=O)c1ccccc1C2=O`, the TGI with HL-60(TB) leukemia was found to be 33.2 µM; in the experiment on NCI-H460 lung, 32.8 µM; in the experiment on SF-268 CNS it was 26.3 µM; in the experiment on T-47D breast it was 59.1 µM; with UACC-257 melanoma, 31 µM.

Consider `N#Cc1nc(CCC(c2nc(C#N)c(N)o2)N2C(=O)c3ccccc3C2=O)oc1N` (stereo not given), for which the TGI in the experiment on HCT-116 colon, in the experiment with HL-60(TB) leukemia, with NCI-H226 lung, in the experiment on NCI-H460 lung, in the experiment with SF-268 CNS and in the experiment on T-47D breast was greater than 100 µM throughout. Moreover, in the experiment with UACC-257 melanoma, the TGI was greater than 100 µM.

For the compound `COc1ccc(Oc2nc(C#CC(C)(C)O)nc(Oc3ccc(OC)cc3)n2)cc1`, the TGI is 31.1 µM in the experiment with BT-549 breast; greater than 100 µM with HCT-116 colon; 3.52 µM in the experiment on HL-60(TB) leukemia; 37.3 µM in the experiment on NCI-H460 lung; 28.5 µM with SF-268 CNS; greater than 100 µM with T-47D breast. Further, in the experiment on UACC-257 melanoma, the TGI came out at 38.2 µM.

Turning to `O=C1ON=C2C3CC4CC12CC1(C3)C(=O)ON=C41`, the TGI with BT-549 breast, in the experiment on HCT-116 colon, with HL-60(TB) leukemia, in the experiment with NCI-H226 lung, in the experiment on NCI-H460 lung and with UACC-257 melanoma was greater than 100 µM throughout.

On to `CCSc1nc(N)c2c(-c3ccccc3)c3c(nc2n1)CCC3`, for which the TGI in the experiment on BT-549 breast, in the experiment on HCT-116 colon, in the experiment on HL-60(TB) leukemia, with NCI-H460 lung, in the experiment on SF-268 CNS and in the experiment on T-47D breast was greater than 100 µM in each case. In addition, in the experiment on UACC-257 melanoma, the TGI was greater than 100 µM.

As to `O=[N+]([O-])c1c2nc3n(c2cc2c1nc1n2CCC1)CCC3`, the TGI with HCT-116 colon, with HL-60(TB) leukemia, with NCI-H226 lung, in the experiment with NCI-H460 lung, in the experiment with SF-268 CNS and in the experiment on T-47D breast was greater than 100 µM throughout. The TGI with UACC-257 melanoma is greater than 100 µM.

For the compound `c1ccc(N=C2SC3=NCCN3C2=Nc2ccccc2)cc1`, the TGI in the experiment with BT-549 breast turned out to be 34.7 µM; with HCT-116 colon, 26.8 µM; in the experiment with NCI-H226 lung it was 36.3 µM; in the experiment on NCI-H460 lung it was 50.6 µM; with T-47D breast, 44.4 µM.

For the compound `O=C(OCc1ccccc1)N1CCN(C(=O)OCc2ccccc2)CCN(C(=O)OCc2ccccc2)CCN(C(=O)OCc2ccccc2)CCN(C(=O)OCc2ccccc2)CC1`, the TGI in the experiment with BT-549 breast was greater than 100 µM; in the experiment with HCT-116 colon, greater than 100 µM; in the experiment on NCI-H226 lung it was greater than 100 µM; with NCI-H460 lung, greater than 100 µM; in the experiment on T-47D breast, greater than 100 µM; in the experiment on UACC-257 melanoma, 73.1 µM.

With `CC(Cc1ccccc1)NC1=NCCO1` (stereo not given), the TGI with HCT-116 colon is 32.4 µM; in the experiment on NCI-H226 lung, greater than 100 µM; in the experiment with NCI-H460 lung it was 36.6 µM; in the experiment on T-47D breast, greater than 100 µM.

For the compound `C#CC(O)/C=C/C(O)CCCC(O)CC#CC(O)C#CC(O)CCCC(O)/C=C/CCCC(=O)CCCCCCCCCCCCCCCC(O)C(O)C#CC(=O)O` (stereo not given), the TGI is greater than 50 µM with HCT-116 colon; 27.4 µM with HL-60(TB) leukemia; greater than 50 µM in the experiment on NCI-H226 lung; greater than 50 µM in the experiment with NCI-H460 lung; greater than 50 µM in the experiment with SF-268 CNS; greater than 50 µM in the experiment on T-47D breast. Further, in the experiment on UACC-257 melanoma, the TGI was greater than 50 µM.

As for `O=C1c2ccccc2-c2nc(/C=C/c3ccccc3)cc3c2c1nc1ccccc13`, the TGI with BT-549 breast, with HCT-116 colon, in the experiment on NCI-H226 lung, with SF-268 CNS, in the experiment with T-47D breast and in the experiment with UACC-257 melanoma was greater than 100 µM each time.

Regarding `CCOC(=O)CSc1[nH]c(NC(=S)Nc2ccccc2)c(C(N)=O)c1C(N)=O`, the TGI is 4.78 µM in the experiment on HL-60(TB) leukemia, greater than 10 µM with SF-268 CNS, greater than 10 µM with T-47D breast and greater than 10 µM in the experiment with UACC-257 melanoma.

As for `c1ccc(C(CCN2CC3CCC(CC3)C2)c2ccccc2)cc1`, the TGI in the experiment on BT-549 breast was greater than 100 µM; with HCT-116 colon, 63.8 µM; with NCI-H226 lung, 35.6 µM; in the experiment on NCI-H460 lung, 28.9 µM; with SF-268 CNS, 69.2 µM; in the experiment with T-47D breast it was 49.1 µM. Moreover, the TGI in the experiment with UACC-257 melanoma worked out at 31.9 µM.

In the case of `COc1ccc(/C=N/NC(=O)c2cnc3[nH]c(=O)n(C)c(=O)c3c2)cc1`, the TGI in the experiment with BT-549 breast, in the experiment with HCT-116 colon, with NCI-H226 lung, with NCI-H460 lung, in the experiment with SF-268 CNS and in the experiment with T-47D breast was greater than 100 µM in each case. The TGI with UACC-257 melanoma was greater than 100 µM.

For `Nn1c(Cc2ccccc2)n[nH]c1=O`, the TGI with BT-549 breast, with HCT-116 colon, in the experiment on HL-60(TB) leukemia, in the experiment on NCI-H226 lung, in the experiment with SF-268 CNS and in the experiment on T-47D breast was greater than 100 µM in each case. In the experiment on UACC-257 melanoma, this compound yielded a TGI greater than 100 µM.
